Data taken from article PMC4882497 (British Journal of Pharmacology, 2016).

Columns and labels:
male WT mice = assay: Motor activity over 24 h in a novel cage; format: in vivo, mouse; conditions: 1 mg/kg i.p., 24 h in novel cage, vs saline, n = 8 vs 7
Experimental: Male WT mice were injected i.p. with either the long‐acting Y4 receptor agonist [K^30(PEG2)]hPP2‐36 (1mg kg^−1) or saline. Activity measurements were performed for 24 h in a novel cage. Mice were single‐housed in standard cages with food and water ad libitum. Movements of the mice were detected by an infrared sensor throughout light and dark phase (TSE LabMaster InfraMot, Bad Homburg, Germany).
To exclude non‐specific effects of [K^30(PEG2)]hPP2‐36 on motor activity that may compromise freezing detection during extinction training, we first injected male WT mice i.p. with [K^30(PEG2)]hPP2‐36 or saline and subsequently observed the activity of the mice for 24 h in a novel cage (Supporting Information Figure S4).

WT (C57Bl/6NCrl) mice = assay: Cued fear extinction after peripheral injection, WT mice; format: in vivo, mouse
Experimental: (§1) Naïve WT (C57Bl/6NCrl) or Y4KO mice were used for fear conditioning experiments. Fear conditioning experiments were conducted during the light phase of the light/dark cycle in sound proof chambers (TSE Systems, Bad Homburg, Germany) by repetitive exposure of the mice to an auditory stimulus co‐terminating with a foot shock, as described in detail previously (Verma et al., 2012). Fear conditioning and context testing were performed in context A consisting of a transparent acrylic mouse conditioning chamber with a metal grid floor. The whole set‐up was enclosed by a sound attenuating chamber. Illumination was 80 lux, and chambers were cleaned with 70% ethanol. Fear recall as well as fear extinction and extinction recall was performed in a different context consisting of a dimly illuminated (10 lux) chamber with black, smooth walls and the floor cleaned with 1% acetic acid (context B).
(§2) On day 1 (context A), mice were subjected to a differential fear conditioning paradigm in which one auditory stimulus served as a CS because it was explicitly paired (CS+, 30 s white noise, 80 dB) with the US, whereas the second auditory stimulus was not paired (CS−, 30 s, 3.5 kHz, 80 dB). All animals received five CS− and five CS+ in an alternating order, starting with a CS+. The US co‐terminating with each CS+ consisted of a foot shock. […] On days 2 and 3, mice were tested for their context (context A for 15 min) and CS‐related fear memory (context B) respectively.
(§3) Fear conditioning was performed in WT (C57Bl6/NCrl) and Y4KO mice on day 1 (context A) as described in the previous paragraph. To avoid interference with postprandial released PP, mice were fasted overnight (16 h) before injection of the drug followed by fear extinction training. Water was freely available during the fasting period. Based on our previous results, a 16 h fasting period was required to reach our experimental aim (Verma et al., 2016). A control experiment was performed without food restriction (non‐fasting). [K^30(PEG2)]hPP2‐36 (1 mg·kg^−1) or saline was injected i.p. 60 min before behavioural testing, as indicated in the timeline of the respective experiments. For extinction experiments, mice were divided into two groups, receiving an i.p. injection of either the long‐acting Y4 receptor agonist [K^30(PEG2)]hPP2‐36 (1 mg·kg^−1) or saline in controls followed after 60 min by extinction training (extinction 1; 5 CS− and 25 CS+, context B). Mice were then tested on day 3 for extinction recall under drug‐free conditions by exposure to five CS+ (context B). To exclude any bias of group selection, another extinction session was performed on day 4 (extinction 2; 25 CS+, context B) followed by extinction recall on day 5 (five CS+; context B), both under drug‐free conditions. Spontaneous recovery (day 12) and renewal (day 13) were tested by exposing the mice to five CS+ in contexts B and A respectively.

WT mice = assay: Fear acquisition and consolidation after peripheral injection; format: in vivo, mouse; conditions: vs saline, n = 6 per group
Experimental: as §1, §2
as §3, with “Spontaneous recovery (day 12) and renewal (day 13) were tested by exposing the mice to five CS+ in contexts B and A respectively.” left out

[1] = test system: orexin neurons in the lateral hypothalamus; assay: c-Fos/orexin dual-labelling immunohistochemistry in lateral hypothalamus after fear extinction, WT mice; format: in vivo, mouse; conditions: i.p. 60 min before fear extinction, fasted 16 h, brains removed 90 min after testing, n = 7 per group
Experimental: A separate group of WT and Y4KO mice were fasted overnight (16 h), injected i.p. with [K^30(PEG2)]hPP2‐36 or saline and subjected to extinction training 60 min later. Using a cryostat 40 μm coronal, free‐floating sections were cut for subsequent immunohistochemistry.
Immunohistochemical analysis was performed on free‐floating, PFA‐fixed, 40 μm thick coronal sections using indirect peroxidase labelling, as described previously (Tasan et al., 2011). The following antisera were used: polyclonal rabbit anti‐c‐Fos (1:20 000 PC38, Calbiochem) and polyclonal rabbit anti‐pan‐orexin (1:1000, Abcam ab6214, Lot:GR63996‐1). In brief, coronal sections were incubated free‐floating in 10% normal goat serum (Biomedica, Vienna, Austria) in Tris–HCl buffered saline (TBS; 50 mM, pH 7.2) for 90 min, followed by incubation with primary antiserum. […]
The number of c‐Fos positive cells was obtained bilaterally from six matched sections per animal showing the lateral hypothalamus, at a magnification of 400×, in multiple separate fields and mean values were calculated for each mouse. Results are presented as number of immunoreactivity positive cells per section and expressed as mean ± SEM. […]

Y4KO mice = assay: Cued fear extinction after peripheral injection, Y4KO mice; format: in vivo, mouse; conditions: 1 mg/kg i.p. 60 min before extinction, fasted 16 h, vs saline, n = 10 per group
Experimental: as §1
On day 1 (context A), mice were subjected to a differential fear conditioning paradigm in which one auditory stimulus served as a CS because it was explicitly paired (CS+, 30 s white noise, 80 dB) with the US, whereas the second auditory stimulus was not paired (CS−, 30 s, 3.5 kHz, 80 dB). All animals received five CS− and five CS+ in an alternating order, starting with a CS+. The US co‐terminating with each CS+ consisted of a foot shock. […]

hY1 = target: T1, hY1 (Homo sapiens, UniProt P25929); assay: Inositol phosphate accumulation, COS-7 cells expressing hY1 and chimeric Gi/q protein; format: cell-based; conditions: agonist, inositol phosphate turnover, COS7 cells, 1 h stimulation, duplicate, at least two experiments
T1 construct: expressed in transfected cells
T1 sequence (P25929 1-384): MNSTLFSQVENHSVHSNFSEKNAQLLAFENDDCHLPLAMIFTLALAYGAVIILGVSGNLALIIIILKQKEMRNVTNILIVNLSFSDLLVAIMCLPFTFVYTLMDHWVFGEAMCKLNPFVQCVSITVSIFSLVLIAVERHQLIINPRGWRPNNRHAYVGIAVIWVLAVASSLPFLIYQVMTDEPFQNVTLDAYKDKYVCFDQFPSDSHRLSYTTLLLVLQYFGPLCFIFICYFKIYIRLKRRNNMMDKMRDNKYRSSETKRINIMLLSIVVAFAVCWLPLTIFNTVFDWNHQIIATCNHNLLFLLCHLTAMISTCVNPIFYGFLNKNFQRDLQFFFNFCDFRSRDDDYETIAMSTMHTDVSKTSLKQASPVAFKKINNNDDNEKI
Experimental: (§4) Agonist activity at Y receptors was assessed by measuring inositol phosphate accumulation in COS‐7 cells, as described previously (Hofmann et al., 2013). […] Stably transfected COS‐7‐hYR‐GαΔ6qi4myr cells were cultivated in DMEM with 4.5 g·L^−1 glucose and L‐glutamine supplemented with 10% (v/v) heat‐inactivated FCS, 100 units mL^−1 penicillin, 100 μg mL^−1 streptomycin, 1.5 mg mL^−1 G418‐sulfate and 146 μg mL^−1 hygromycin B in a humidified atmosphere at 37°C and 5% CO2. COS 7 cells were a gift from Prof. Dr. Torsten Schöneberg (Leipzig University). Stable cell lines were prepared as described in Mäde et al., 2014. Cells were grown in 48‐well plates (90 000 cells in 500 μL per well) for 24 h. […] Cells were lysed applying 0.1 M sodium hydroxide for 5 min at room temperature followed by neutralization with 0.2 M formic acid. […] Eluates were diluted with scintillation cocktail Ultima Gold (Perkin Elmer) and measured by a scintillation counter (Tri‐Carb 2910 TR from PerkinElmer). […] For each compound, global mean EC50 and pEC50 ± SEM (n ≥ 2) were calculated from the entire normalized concentration‐response curves by nonlinear regression using GraphPad Prism 5.0. […]
(§5) Activity at the human receptors, hY1, hY2, hY4 and hY5, was measured by accumulation of IP3, after channeling cAMP inhibition to phospholipase C activity, in COS7 cells.

hY2 = target: T2, hY2 (Homo sapiens, UniProt P49146); assay: Inositol phosphate accumulation, COS-7 cells expressing hY2 and chimeric Gi/q protein; format: cell-based; conditions: agonist, inositol phosphate turnover, COS7 cells, 1 h stimulation, duplicate, at least two experiments
T2 construct: expressed in transfected cells
T2 sequence (P49146 1-381): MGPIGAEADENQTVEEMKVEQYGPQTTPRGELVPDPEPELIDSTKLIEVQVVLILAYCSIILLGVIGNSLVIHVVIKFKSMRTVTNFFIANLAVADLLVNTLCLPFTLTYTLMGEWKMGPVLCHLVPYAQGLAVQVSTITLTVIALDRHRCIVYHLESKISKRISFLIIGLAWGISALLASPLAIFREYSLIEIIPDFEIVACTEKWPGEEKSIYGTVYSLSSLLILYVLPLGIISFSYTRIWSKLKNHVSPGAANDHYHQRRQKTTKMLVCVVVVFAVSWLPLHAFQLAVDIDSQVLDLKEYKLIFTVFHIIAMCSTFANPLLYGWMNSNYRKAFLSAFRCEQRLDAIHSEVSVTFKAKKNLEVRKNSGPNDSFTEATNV
Experimental: as §4, §5

hY5 = target: T3, hY5 (Homo sapiens, UniProt Q15761); assay: Inositol phosphate accumulation, COS-7 cells expressing hY5 and chimeric Gi/q protein; format: cell-based; conditions: agonist, inositol phosphate turnover, COS7 cells; pEC50 ± SEM, n ≥ 2
T3 construct: expressed in transfected cells
T3 sequence (Q15761 1-445): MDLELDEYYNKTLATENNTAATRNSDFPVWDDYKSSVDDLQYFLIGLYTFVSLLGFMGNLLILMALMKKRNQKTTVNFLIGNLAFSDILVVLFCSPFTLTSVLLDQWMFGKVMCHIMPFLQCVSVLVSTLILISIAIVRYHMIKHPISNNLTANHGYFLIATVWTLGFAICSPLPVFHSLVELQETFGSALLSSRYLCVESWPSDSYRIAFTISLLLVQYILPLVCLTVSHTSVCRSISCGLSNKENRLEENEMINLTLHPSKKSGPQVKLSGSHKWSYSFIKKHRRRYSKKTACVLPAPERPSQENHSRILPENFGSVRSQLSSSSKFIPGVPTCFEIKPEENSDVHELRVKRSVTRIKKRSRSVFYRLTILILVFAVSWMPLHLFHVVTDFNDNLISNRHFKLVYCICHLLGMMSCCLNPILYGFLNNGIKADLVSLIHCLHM
Experimental: as §4, §5

hY4 = target: T4, hY4 (Homo sapiens, UniProt P50391); assay: Inositol phosphate accumulation, COS-7 cells expressing hY4 and chimeric Gi/q protein; format: cell-based; conditions: agonist, inositol phosphate turnover, COS7 cells; pEC50 ± SEM, n ≥ 2
T4 construct: expressed in transfected cells
Experimental: as §4, §5

[2] = i.p. immediately after fear acquisition

T4 sequence (P50391 whole entry): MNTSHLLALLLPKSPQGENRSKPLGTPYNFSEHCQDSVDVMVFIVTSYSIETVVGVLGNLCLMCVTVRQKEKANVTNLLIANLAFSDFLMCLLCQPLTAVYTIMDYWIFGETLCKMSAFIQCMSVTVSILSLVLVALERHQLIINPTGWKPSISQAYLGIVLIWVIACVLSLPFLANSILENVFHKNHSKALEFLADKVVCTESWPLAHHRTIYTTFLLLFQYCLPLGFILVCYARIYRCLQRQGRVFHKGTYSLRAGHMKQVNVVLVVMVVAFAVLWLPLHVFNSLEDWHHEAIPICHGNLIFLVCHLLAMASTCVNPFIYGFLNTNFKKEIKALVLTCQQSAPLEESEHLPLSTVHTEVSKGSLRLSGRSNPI

general motor activity (male WT mice) | EC50 (hY1) [nM] | EC50 (hY2) [nM] | hY5 pEC50 (hY5) | hY4 pEC50 (hY4) | Substance | cued fear extinction learning (freezing to CS) (WT (C57Bl/6NCrl) mice; 1 mg/kg i.p. 60 min before extinction training, fasted 16 h, male WT mice, vs saline) | freezing at CS13 during extinction (WT (C57Bl/6NCrl) mice; 1 mg/kg i.p. 60 min before extinction, fasted 16 h, WT mice, n = 10 per group) | freezing during extinction recall (WT (C57Bl/6NCrl) mice; 1 mg/kg i.p. before extinction 1, fasted 16 h, recall 24 h later drug-free and non-fasting, male WT mice, vs saline) | freezing during spontaneous recovery (WT (C57Bl/6NCrl) mice; 1 mg/kg i.p. before extinction training 1 (day 2), fasted 16 h, tested day 12, context B, male WT mice, n = 7 per group) | freezing during renewal (WT (C57Bl/6NCrl) mice; 1 mg/kg i.p. before extinction training 1 (day 2), fasted 16 h, tested day 13, context A, male WT mice, n = 7 per group) | cued fear extinction learning, non-fasted (WT (C57Bl/6NCrl) mice; i.p. 60 min before extinction training, non‐fasted WT mice, vs saline, n = 6 per group) | context fear after injection before fear acquisition (WT mice; i.p. 60 min before fear acquisition, 16 h fasting, tested 24 h later) | CS-induced fear after injection before fear acquisition (WT mice; i.p. 60 min before fear acquisition, 16 h fasting, tested 48 h later) | CS-induced freezing after injection immediately after fear acquisition (consolidation) (WT mice; [2]) | context fear after injection immediately after fear acquisition (consolidation) (WT mice; [2]) | percentage of cFos-positive orexin neurons in the lateral hypothalamus [1] | cued fear extinction (freezing to CS) (Y4KO mice)
did not influence general motor activity | – | – | – | – | [K^30(PEG2)]hPP2‐36 | significantly facilitated extinction learning | reduced freezing at CS13 | reduction of freezing during extinction recall | reduced freezing | reduced freezing | did not facilitate extinction learning | did not alter | did not alter | did also not change | did also not change | specifically reduced | did not respond
– | > 1000 | > 1000 | 6.4 ± 0.1 | 8.0 ± 0.2 | [K^30(PEG2)]hPP2‐36 (H-PLEPVYPGDNATPEQMAQYAADLRRYINK(MeO‑PEG 2 kDa)LTRPRY-NH2) [lysine 30 carries 2000 Da MeO-PEG] | – | – | – | – | – | – | – | – | – | – | – | –
